In US11535630B2, “Apelin receptor (APJ) agonists and uses thereof” (Research Triangle Institute, priority 2015, dated 2022):

Target: T1, apelin receptor (APJ) (Homo sapiens, UniProt P35414)
T1 sequence (P35414 1-380): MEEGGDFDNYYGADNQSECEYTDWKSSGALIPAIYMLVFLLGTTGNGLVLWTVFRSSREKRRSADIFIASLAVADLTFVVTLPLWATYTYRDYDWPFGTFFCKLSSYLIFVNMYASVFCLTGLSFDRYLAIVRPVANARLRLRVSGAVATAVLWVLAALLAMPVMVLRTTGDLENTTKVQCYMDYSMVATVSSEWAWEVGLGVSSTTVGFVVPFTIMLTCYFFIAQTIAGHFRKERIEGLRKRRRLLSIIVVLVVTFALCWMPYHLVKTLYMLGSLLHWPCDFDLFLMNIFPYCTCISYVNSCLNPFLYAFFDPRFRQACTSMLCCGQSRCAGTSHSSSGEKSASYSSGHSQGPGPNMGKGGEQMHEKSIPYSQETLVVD
Assay: In vitro apelin agonist activity (methods of Giddings et al., Apelin-13 as positive control)
Type: cell-based
Settings: in vitro apelin agonist activity, methods of Giddings et al., Apelin-13 as positive control; read-out: EC50 (nM) Ave
From the text: Characterization of the Apelin Agonist Activity of the Compounds
1:39-47, the contents of which are hereby incorporated by reference in its entirety. Using the methods described in Giddings et al. and Apelin-13 as a positive control.

Structure (SMILES)	EC50 [nM]
CN(C[C@@H](CC(=O)O)NC(=O)c1cc(-c2ccccc2C(F)(F)F)n(C2CCCC2)n1)C1CCCCC1 [compound 533, (3R)-4-[cyclohexyl(methy)amino1]-3-({1-cyclopentyl-5-[2-(trifluoromethyl)phenyl]-1H-pyrazol-3-yl}formamido)butanoic acid]	822
O=C(O)C[C@H](CCN1CCCC[C@@H]1C(F)(F)F)NC(=O)c1cc(-c2ccccc2C(F)(F)F)n(C2CCCC2)n1 [compound 488, (3S)-3-({1-cyclopentyl-5-[2-(trifluoromethyl)phenyl]-1H-pyrazol-3-yl}formamido)-5-[(2R)-2-(trifluoromethyl)piperidin-1-yl]pentanoic acid]	1340
O=C(C[C@H](CCN1CCCCC1)NC(=O)c1cc(-c2cncnc2)n(C2CCCC2)n1)NC1CCC1 [compound 368, (3S)-N-cyclobutyl-3-{[1-cyclopentyl-5-(pyrimidin-5-yl)-1H-pyrazol-3-yl]formamido}-5-(piperidin-1-yl)pentanamide]	> 10000
O=C(O)C[C@H](CCN1C2CCC1CC(F)(F)C2)NC(=O)c1cc(-c2ccccc2C(F)(F)F)n(C2CCCC2)n1 [compound 602, (3S)-3-({1-cyclopentyl-5-[2-(trifluoromethyl)phenyl]-1H-pyrazol-3-yl}formamido)-5-{3,3-difluoro-8-azabicyclo[3.2.1]octan-8-yl}pentanoic acid]	346
O=C(O)C[C@H](CCN1C[C@@H](F)[C@@H](F)C1)NC(=O)c1cc(-c2ccccc2C(F)(F)F)n(C2CCCC2)n1 [compound 581, (3S)-3-({1-cyclopentyl-5-[2-(trifluoromethyl)phenyl]-1H-pyrazol-3-yl}formamido)-5-[(3R,4S)-3,4-difluoropyrrolidin-1-yl]pentanoic acid]	215
O=C(C[C@H](CCN1CCCCC1)NC(=O)c1cc(-c2ccccn2)n(C2CCCC2)n1)NC1CCC1 [compound 375, (3S)-N-cyclobutyl-3-{[1-cyclopentyl-5-(pyridin-2-yl)-1H-pyrazol-3-yl]formamido}-5-(piperidin-1-yl)pentanamide]	> 10000
O=C(O)C[C@H](CCN1CCC(F)(F)C1)NC(=O)c1cc(-c2ccccc2C(F)(F)F)n(C2CCCC2)n1 [compound 485, (3S)-3-({1-cyclopentyl-5-[2-(trifluoromethyl)phenyl]-1H-pyrazol-3-yl}formamido)-5-(3,3-difluoropyrrolidin-1-yl)pentanoic acid]	110
O=C(O)C[C@H](CCNC(=O)C1CCCC1)NC(=O)c1cc(-c2ccccc2C(F)(F)F)n(C2CCCC2)n1 [compound 538, (3S)-3-({1-cyclopentyl-5-[2-(trifluoromethyl)phenyl]-1H-pyrazol-3-yl}formamido)-5-(cyclopentylformamido)pentanoic acid]	544
O=C(N[C@@H](CCc1ccc(F)cc1)Cc1nnc(C(F)(F)F)o1)c1cc(-c2ccccc2C(F)(F)F)n(C2CCCC2)n1 [compound 475, 1-cyclopentyl-N-[(2S)-4-(4-fluorophenyl)-1-[5-(trifluoromethyl)-1,3,4-oxadiazol-2-yl]butan-2-yl]-5-[2-(trifluoromethyl)phenyl]-1H-pyrazole-3-carboxamide]	146
CN(CC[C@@H](CC(=O)NC1CCC1)NC(=O)c1cc(-c2ccccc2C(F)(F)F)n(C2CCCC2)n1)C1(C)CCCC1 [compound 511, (3S)-N-cyclobutyl-3-({1-cyclopentyl-5-[2-(trifluoromethyl)phenyl]-1H-pyrazol-3-yl}formamido)-5-[methyl(1-methylcyclopentyl)amino]pentanamide]	35
O=C(C[C@H](CCN1CCCC(F)(F)C1)NC(=O)c1cc(-c2ncccc2C(F)(F)F)n(C2CCCC2)n1)NC1CCC1 [compound 479, (3S)-N-cyclobutyl-3-({1-cyclopentyl-5-[3-(trifluoromethyl)pyridin-2-yl]-1H-pyrazol-3-yl}formamido)-5-(3,3-difluoropiperidin-1-yl)pentanamide]	0.86
O=C(N[C@@H](CCN1CCCC(F)(F)C1)Cc1nnc[nH]1)c1cc(-c2ccccc2Cl)n(C2CCCC2)n1 [compound 450, 5-(2-chlorophenyl)-1-cyclopentyl-N-[(2S)-4-(3,3-difluoropiperidin-1-yl)-1-(4H-1,2,4-triazol-3-yl)butan-2-yl]-1H-pyrazole-3-carboxamide]	30
CCCn1nc(C(=O)N[C@@H](CCN2CCCC(F)(F)C2)CC(=O)O)cc1-c1ccccc1C(F)(F)F [compound 580, (3S)-5-(3,3-difluoropiperidin-1-yl)-3-({1-propyl-5-[2-(trifluoromethyl)phenyl]-1H-pyrazol-3-yl}formamido)pentanoic acid]	718
C#Cc1ccccc1-c1cc(C(=O)N[C@@H](CCN2CCCCC2)CC(=O)NC2CCC2)nn1C1CCCC1 [compound 438, (3S)-N-cyclobutyl-3-{[1-cyclopentyl-5-(2-ethynylphenyl)-1H-pyrazol-3-yl]formamido}-5-(piperidin-1-yl)pentanamide]	290
O=C(O)C[C@H](CCN1C(=O)CCCC1=O)NC(=O)c1cc(-c2ccccc2C(F)(F)F)n(C2CCCC2)n1 [compound 604, (3S)-3-({1-cyclopentyl-5-[2-(trifluoromethyl)phenyl]-1H-pyrazol-3-yl}formamido)-5-(2,6-dioxopiperidin-1-yl)pentanoic acid]	55
O=C(C[C@H](CCN1CCCCC12COC2)NC(=O)c1cc(-c2ccccc2C(F)(F)F)n(C2CCCC2)n1)NC1CCC1 [compound 522]	64
O=C(C[C@H](CCNC(=O)C1COC1)NC(=O)c1cc(-c2ccccc2C(F)(F)F)n(C2CCCC2)n1)NC1CCC1 [compound 539, (3S)-N-cyclobutyl-3-({1-cyclopentyl-5-[2-(trifluoromethyl)phenyl]-1H-pyrazol-3-yl}formamido)-5-(oxetan-3-ylformamido)pentanamide]	176
O=C(O)C[C@H](CCN1CC[C@H](F)C1)NC(=O)c1cc(-c2ccccc2C(F)(F)F)n(C2CCCC2)n1 [compound 585, (3S)-3-({1-cyclopentyl-5-[2-(trifluoromethyl)phenyl]-1H-pyrazol-3-yl}formamido)-5-[(3S)-3-fluoropyrrolidin-1-yl]pentanoic acid]	654

Further lines, results first:

EC50 [nM]	Structure (SMILES)
3310	COc1cccc(OC)c1-c1cc(C(=O)N[C@@H](CCC2CCN(C)CC2)CC(=O)NC2CCC2)nn1C1CCCC1 [compound 421, (3S)-N-cyclobutyl-3-{[1-cyclopentyl-5-(2,6-dimethoxyphenyl)-1H-pyrazol-3-yl]formamido}-5-(1-methylpiperidin-4-yl)pentanamide]
5180	COc1cccc(OC)c1-c1cc(C(=O)N[C@@H](CCc2ccccc2)CC(=O)NCc2nnn[nH]2)nn1C1CCCC1 [compound 383, (3S)-3-{[1-cyclopentyl-5-(2,6-dimethoxyphenyl)-1H-pyrazol-3-yl]formamido}-5-phenyl-N-(1H-1,2,3,4-tetrazol-5-ylmethyl)pentanamide]
1030	COc1cccc(Cl)c1-c1cc(C(=O)N[C@@H](CCN2CCCCC2)CC(=O)NC2CCC2)nn1C1CCCC1 [compound 370, (3S)-3-{[5-(2-chloro-6-methoxyphenyl)-1-cyclopentyl-1H-pyrazol-3-yl]formamido}-N-cyclobutyl-5-(piperidin-1-yl)pentanamide]
> 10000	COc1cccc(OC)c1-c1cc(C(=O)N[C@@H](CC2CCC2)C(=O)NC2CCC2)nn1C1CCCC1 [compound 377, (2S)-N,3-dicyclobutyl-2-{[1-cyclopentyl-5-(2,6-dimethoxyphenyl)-1H-pyrazol-3-yl]formamido}propanamide]
> 10000	COc1cccc(OC)c1-c1cc(C(=O)N[C@@H](CCc2ccccc2)C(=O)Nc2nnn[nH]2)nn1C1CCCC1 [compound 395, (2S)-2-{[1-cyclopentyl-5-(2,6-dimethoxyphenyl)-1H-pyrazol-3-yl]formamido}-4-phenyl-N-(1H-1,2,3,4-tetrazol-5-yl)butanamide]
1140	Cc1nnc(C[C@H](CCc2ccc(F)cc2)NC(=O)c2cc(-c3ccccc3C(F)(F)F)n(C3CCCC3)n2)[nH]1 [compound 471, 1-cyclopentyl-N-[(2S)-4-(4-fluorophenyl)-1-(5-methyl-4H-1,2,4-triazol-3-yl)butan-2-yl]-5-[2-(trifluoromethyl)phenyl]-1H-pyrazole-3-carboxamide]
343	COc1cccc(OC)c1-c1cc(C(=O)N[C@@H](CCN2CCOCC2)CC(=O)NC2CCC2)nn1C1CCCC1 [compound 312, (3S)-N-cyclobutyl-3-{[1-cyclopentyl-5-(2,6-dimethoxyphenyl)-1H-pyrazol-3-yl]formamido}-5-(morpholin-4-yl)pentanamide]
> 10000	COc1cccc(OC)c1-c1cc(C(=O)N[C@@H](CCNCc2ccncc2)CC(=O)OC(C)(C)C)nn1C1CCCC1 [compound 306, tert-butyl (3S)-3-{[1-cyclopentyl-5-(2,6-dimethoxyphenyl)-1H-pyrazol-3-yl]formamido}-5-[(pyridin-4-ylmethyl)amino]pentanoate]
> 10000	CCC(CC)n1nc(C(=O)N[C@@H](CCN2CCCCC2)CC(=O)NC2CCC2)cc1-c1c(OC)cccc1OC [compound 357, (3S)-N-cyclobutyl-3-{[5-(2,6-dimethoxyphenyl)-1-(pentan-3-yl)-1H-pyrazol-3-yl]formamido}-5-(piperidin-1-yl)pentanamide]
> 10000	CCN(CC)CC[C@@H](CC(=O)OC(C)(C)C)NC(=O)c1cc(-c2c(OC)cccc2OC)n(C2CCCC2)n1 [compound 305, tert-butyl (3S)-3-{[1-cyclopentyl-5-(2,6-dimethoxyphenyl)-1H-pyrazol-3-yl]formamido}-5-(diethylamino)pentanoate]
